We go through seven compounds from US6525200B1, “Multicyclic aromatic compounds and uses thereof” (Roche Diagnostics Corporation, priority 2000, dated 2003).

Structures can show the parent of a compound that is named as a salt. Where two headings read alike, the source gives them in different places.

For data set [1] the following is noted: in water; read-out: dissociation constant of the complex with methylguanidinium ion; cited from earlier work.
For data set [2] the following is noted: water or aqueous medium; cited from earlier work.
A short description of data set [3]: Fluorescence quenching of receptor on addition of N-methylguanidinium. The settings on record: 30 μM receptor in distilled water, excitation 388 nm, 2 equivalents of guest. In kind it is binding. As for the experimental part:
UV-visible absorbance and fluorescence were examined. UV spectra were recorded on a Hewlett-Packard 8452A diode array UV-vis spectrophotometer, using a cell of 1 cm pathlength. Fluorescence spectra were recorded on a Photon Technology International QM-1 Steady state Fluorescence system. For UV-visible titrations stability constants (Ks) were calculated by fitting the data to the equation: Aobs=(εR[R]t+[R]t(εRG−εR)(Ks[G]t+Ks[R]t+1−sqrt((Ks[G]t+Ks[R]t+1)^2−4*[R]t Ks^2[G]t))/(2Ks[R]t))1 derived from Ks=[G][R]/[RG], [R]t=[R]+[RG], [G]t=[G]+[RG], and Aobs=(εR[R]+εRG[RG])1. The experimentally determined parameters are as follows: [R]t, the total concentration of a receptor; [G]t, the total concentration of a guest; Aobs, the observed absorbance; εR, the extinction coefficient of free receptor; 1, cell pathlength. […] For fluorescense titrations stability constants (Ks) were calculated by fitting as the data to the equation: Iobs=IR+(IRG−IR)(Ks[G]t+Ks[R]t+1−sqrt((Ks[G]t+Ks[R]t+1)^2−4*[R]tKs^2[G]t))/(2Ks[R]t) derived from Ks=[G][R]/[RG], [R]t=[R]+[RG], [G]t=[G]+[RG], and Iobs=IR+IRG. The experimentally determined parameters are as follows: [R]t, the total concentration of a receptor; [G]t, the total concentration of a guest; Iobs, the observed fluorescence intensity; IR, the fluorescence intensity of free receptor at a given concentration. […]

Data set [4] can be described thus: UV-visible titration of receptor with N-methylguanidine hydrochloride in distilled water. In kind it is binding. The protocol:
(§1) UV-visible absorbance and fluorescence were examined. UV spectra were recorded on a Hewlett-Packard 8452A diode array UV-vis spectrophotometer, using a cell of 1 cm pathlength. Fluorescence spectra were recorded on a Photon Technology International QM-1 Steady state Fluorescence system. For UV-visible titrations stability constants (Ks) were calculated by fitting the data to the equation: Aobs=(εR[R]t+[R]t(εRG−εR)(Ks[G]t+Ks[R]t+1−sqrt((Ks[G]t+Ks[R]t+1)^2−4*[R]t Ks^2[G]t))/(2Ks[R]t))1 derived from Ks=[G][R]/[RG], [R]t=[R]+[RG], [G]t=[G]+[RG], and Aobs=(εR[R]+εRG[RG])1. The experimentally determined parameters are as follows: [R]t, the total concentration of a receptor; [G]t, the total concentration of a guest; Aobs, the observed absorbance; εR, the extinction coefficient of free receptor; 1, cell pathlength. The fitted parameters: εRG, the extinction coefficient of a receptor complex with a guest, Ks, the stability constant. For fluorescense titrations stability constants (Ks) were calculated by fitting as the data to the equation: Iobs=IR+(IRG−IR)(Ks[G]t+Ks[R]t+1−sqrt((Ks[G]t+Ks[R]t+1)^2−4*[R]tKs^2[G]t))/(2Ks[R]t) derived from Ks=[G][R]/[RG], [R]t=[R]+[RG], [G]t=[G]+[RG], and Iobs=IR+IRG. The experimentally determined parameters are as follows: [R]t, the total concentration of a receptor; [G]t, the total concentration of a guest; Iobs, the observed fluorescence intensity; IR, the fluorescence intensity of free receptor at a given concentration. The fitted parameters: IRG, the fluorescence intensity of a receptor complex with aguest at a given concentration, Ks, the stability constant. The calculations were performed using software Sigma Plot 1.02 (Jandel Scientific) with tolerance value 0.000100. The goodness of fit was evaluated by means of the Student's Paired t-Test (P-value>0.05).
UV-visible titrations was performed by first preparaing a 30 μM receptor 5 (compound IA) stock solution in distilled water. […]
The following parameters were found from absorbance data measured at 410 nm: εR=6.50×10^3 cm^−1 M^−1, εRG=2.43×10^4 cm^−1 M^−1, Ks=1.0×10^5 M^−1.

Data set [5] in a line: Fluorescence complexation studies of receptors with urea. In kind it is binding. The protocol:
as §1
A fluorescence titration study was performed as follows: a stock solution of the receptor (compound IB) was prepared with distilled water. Using the equipment described in Example 6, an excitation wavelength of 384 nm was used to obtain the spectrum for the uncomplexed receptor. Thereafter, four (4) aliquots of a urea stock solution were added with fluorescence being measured after each addition. A composite spectrum is show in FIG. 8.
Fluorescence was measured for the stock receptor solution using an excitation wavelength of 384 nm with a peak emission being observed at 450 nm. The stock urea solution was then added and fluorescence was measured again. A composite spectrum is shown in FIG. 10, with curve (a) representing the receptor without urea and curve (b) representing the complexation of the receptor with urea.
Fluorescence was also measured using a 25 μM stock solution of the receptor in distilled water. […] A urea solution was prepared and added to the receptor solution to measure quenching due to complexation.
Fluorescence was measured for a 20 μM stock solution of compound ID in a 98:2 (v/v) DMSO:water solvent system. An excitation wavelength of 407 nm was used with a peak emission being observed at 450 nm. A 0.17 M urea solution was then added and fluorescence measured again. A composite spectrum is shown in FIG. 11, with curve (a) representing the receptor (i.e., compound ID) without urea and curve (b) representing the complexation of the receptor with urea. […]
Fluorescence was measured for a 20 μM stock solution of compound IE in a 1:1 (v/v) DMSO:CHCl3 solvent system. […] Twenty equivalents of urea were then added and fluorescence measured again. […]

[6] abbreviates: in water, fluorescence quenching, read-out: Kd with urea.

With `O=C(O)c1ccc2c(n1)-c1nc3nc4c(cc3cc1CC2)CCc1ccc(C(=O)O)nc1-4` [Compound 3], the Kd in data set [1] is 4.3 mM. Besides, the “solubility in water / aqueous medium” value in data set [2] was “soluble in water”.

For `CCCCc1c2c(nc3c1CCc1cc4cc5c(nc4nc1-3)-c1nc3c(c(CCCC)c1CC5)CCc1cc4cccnc4nc1-3)-c1nc3ncccc3cc1CC2` [Compound 4], the “solubility in water / aqueous medium” value in data set [2] is recorded as “not soluble in water”.

For `O=C(O)c1ccc2c(n1)-c1nc3nc4c(cc3cc1CC2)CCc1cc2c(nc1-4)-c1nc3ncccc3cc1CC2` [Compound IA, 5,6,9,10,12,13-Hexahydro[1,10]phenanthrolino[2,3-b]pyrido[2′3′:2,3]quino[7,8-j][1,10]phenanthroline-2-carboxylic acid, potassium salt], the “emission band at 410 nm, remaining share of original fluorescence intensity” value in data set [3] was “approximately 24%”. Further, the “stability constant Ks of complex with N-methylguanidinium” value in data set [4] (30 μM receptor in distilled water, absorbance at 410 nm) came to 100000 M⁻¹. Also, in data set [4] (in water), the “binds N-methylguanidinium more strongly than the arginine cork” value was found to be 430 times. In addition, in data set [4] (in water, correlated from Ks, read-out: Kd of complex with N-methylguanidinium), the Kd is 0.01 mM.

Take `Nc1ccc2cc3c(nc2n1)-c1nc2c(cc1CC3)CCc1cc3cc4c(nc3nc1-2)-c1nc(C(=O)O)ccc1CC4` [Compound IB, 17-Amino-5,6,9,10,12,13-hexahydro[1,10]phenanthrolino[2,3-b]pyrido[2′3′:2,3]quino[7,8-j][1,10]phenanthroline-2-carboxylic acid, potassium salt]: the Kd in data set [5] (setting [6]) is under 17 mM.

For the compound `Nc1cccc(-c2ccc3c(n2)-c2nc4nc5c(cc4cc2CC3)CCc2ccc(C(=O)O)nc2-5)n1` [Compound IC, 5,6,9,10-Tetrahydro-13-(2-aminopyridin-6-yl)[1,10]phenanthrolino[2,3-b][1,10]phenanthroline-2-carboxylic acid], the Kd came to 33 mM in data set [5] (in DMSO, 30 μM receptor, excitation 384 nm, read-out: Kd for urea) and 13 mM in data set [5] (setting [6]).

Take `O=C(O)c1ccc2c(n1)-c1nc3nc4c(cc3cc1CC2)CCc1ccc(-c2nc(O)cc(O)n2)nc1-4` [Compound ID, 5,6,9,10-Tetrahydro-13-(4,6-dihydroxypyrimidin-2-yl) [1,10]phenanthrolino [2,3-b][1,10]phenanthroline-2-carboxylic acid, potassium salt]: the Kd in data set [5] (98:2 (v/v) DMSO:water, 20 μM receptor, excitation 407 nm, read-out: Kd for urea) stood at 50 mM.

Turning to `COc1cc(N(C)C)c(OC)cc1CCNC(=O)c1ccc2c(n1)-c1nc3nc4c(cc3cc1CC2)CCc1ccc(C(=O)NCCNc2ccc3c5c(cccc25)C(=O)N(Cc2ccc(C(=O)OC(C)(C)C)cc2)C3=O)nc1-4` [Compound IE, 5,6,9,10-Tetrahydro[1,10]phenanthrolino[2,3-b][1,10]phenanthroline-2-(N-(4-aminoethyl-N′-(4-tert-butoxycarbonyltoluidyl)naphthyridine))carboxamide-13-(N-(2,5-dimethoxy-4-dimethylaminophenethyl))carboxamide], the Kd in data set [5] (1:1 (v/v) DMSO:CHCl3, 20 μM receptor, excitation 460 nm, read-out: Kd for urea) is 16 mM.
